What was measured:
CETP [1] = biological target: T1, CETP (Homo sapiens, UniProt P11597); assay: Assay of CETP inhibition in human plasma: transfer of [3H]CE from [3H]CE-HDL to VLDL and LDL; format: biochemical; set-up: Blood was obtained from healthy volunteers; from tissue; host or cells: pooled human EDTA plasma from healthy volunteers; details: inhibition of transfer of [3H]CE from [3H]CE-HDL to VLDL and LDL
T1 sequence (P11597 18-493): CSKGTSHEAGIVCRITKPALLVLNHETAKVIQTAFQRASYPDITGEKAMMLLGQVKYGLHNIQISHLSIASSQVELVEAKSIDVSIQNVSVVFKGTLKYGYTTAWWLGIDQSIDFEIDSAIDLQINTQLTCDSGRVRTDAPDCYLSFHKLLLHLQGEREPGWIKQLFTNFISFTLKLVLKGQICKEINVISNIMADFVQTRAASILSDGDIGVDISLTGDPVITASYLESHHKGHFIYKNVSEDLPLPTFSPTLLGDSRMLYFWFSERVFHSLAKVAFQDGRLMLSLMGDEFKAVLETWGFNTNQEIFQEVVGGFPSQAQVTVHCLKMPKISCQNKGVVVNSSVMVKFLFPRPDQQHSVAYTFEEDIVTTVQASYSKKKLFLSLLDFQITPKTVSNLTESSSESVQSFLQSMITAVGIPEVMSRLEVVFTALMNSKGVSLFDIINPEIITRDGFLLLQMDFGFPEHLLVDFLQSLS
Experimental: ASSAY OF CETP INHIBITION IN HUMAN PLASMA
Blood was obtained from healthy volunteers, recruited from the personnel of Monsanto Company, Saint Louis, MO. Blood was collected in tubes containing EDTA (EDTA plasma pool). The EDTA human plasma pool, previously stored at -20 °C, was thawed at room temperature and centrifuged for 5 minutes to remove any particulate matter. […] Equal volumes (396 µL) of the plasma containing the [^3H]CE-HDL were added by pipette into micro tubes (Titertube®, Bio-Rad laboratories, Hercules, CA). Inhibitor compounds, dissolved as 20-50 mM stock solutions in DMSO, were serially diluted in DMSO (or an alternative solvent in some cases, such as dimethylformamide or ethanol). Four µL of each of the serial dilutions of inhibitor compounds or DMSO alone were then added to each of the tubes containing plasma (396 µL). After mixing, triplicate aliquots (100 µL) from each plasma tube were then transferred to wells of 96-well roundbottomed polystyrene microtiter plates (Corning, Corning, NY). Plates were sealed with plastic film and incubated at 37 °C for 4 hours. "Test" samples contained plasma with dilutions of inhibitor compounds. "Control" samples contained plasma with DMSO diluted to the same concentration as the test samples, but without inhibitor. "Blank" samples were prepared as "control" samples, but were left in the micro tubes at 4 °C for the 4 hour incubation and were then added to the microtiter wells at the end of the incubation period. VLDL and LDL were precipitated by the addition of 10 µL of precipitating reagent (1% (w/v) dextran sulfate (Dextralip50)/0.5 M magnesium chloride, pH 7.4) to all wells. The wells were mixed on a plate mixer and then incubated at ambient temperature for 10 min. The plates were then centrifuged at 1000 x g for 30 min at 10 °C. The supernatants (50 µL) from each well were then transferred to Picoplate™ 96 plate wells (Packard, Meriden. CT) containing Microscint™-40 (Packard, Meriden, CT). The plates were heat-sealed (TopSeal™-P, Packard, Meriden, CT) according to the manufacturer's directions and mixed for 30 min. Radioactivity was measured on a microplate scintillation counter (TopCount. Packard, Meriden, CT). The maximum percentage transfer in the control wells (% transfer) was determined using the following equation: % Transfer = ([dpmblank -dpmcontrol ] × 100)/(dpmblank) [formula]
The percentage of transfer relative to the control (% control) was determined in the wells containing inhibitor compounds was determined as follows: % Control = ([dpmblank -dpmtest ] × 100)/(dpmblank -dpmcontrol) [formula]
IC50 values were then calculated from plots of % control versus concentration of inhibitor compound. […]

CETP [2] = biological target: T1, CETP; assay: Assay of CETP inhibition using purified components (reconstituted buffer assay): transfer of [3H]CE from HDL to LDL; format: biochemical; set-up: made in house; host or cells: CHO cells (serum-free conditioned medium); details: 2 hours at 37°C
Experimental: ASSAY OF CETP INHIBITION USING PURIFIED COMPONENTS (RECONSTITUTED BUFFER ASSAY)
The ability of compounds to inhibit CETP activity was assessed using an in vitro assay that measured the rate of transfer of radiolabeled cholesteryl ester ([^3H]CE) from HDL donor particles to LDL acceptor particles. Details of the assay are provided by Glenn, K. C. et al. (Glenn and Melton, "Quantification of Cholesteryl Ester Transfer Protein (CETP): A) CETP Activity and B) Immunochemical Assay of CETP Protein," Meth. Enzymol., 263, 339-351 (1996)). Human recombinant CETP can be obtained from the serum-free conditioned medium of CHO cells transfected with a cDNA for CETP and purified as described by Wang, S. et al. (J. Biol. Chem. 267, 17487-17490 (1992)). To measure CETP activity, [^3H]CE-labeled-HDL, LDL, CETP and assay buffer (50 mM tris(hydroxymethyl)aminomethane, pH 7.4; 150 mM sodium chloride; 2 mM ethylenediamine-tetraacetic acid (EDTA); 1% bovine serum albumin) were incubated in a final volume of 200 µL, for 2 hours at 37°C in 96 well plates. […] The inhibitors were then diluted 1:1 with CETP in assay buffer, and then 25 µL of that solution was mixed with 175 µL of lipoprotein pool for assay. Following incubation, LDL was differentially precipitated by the addition of 50 µL of 1% (w/v) dextran sulfate/0.5 M magnesium chloride, mixed by vortex, and incubated at room temperature for 10 minutes. A potion of the solution (200 µL) was transferred to a filter plate (Millipore). After filtration, the radioactivity present in the precipitated LDL was measured by liquid scintillation counting.
This value was defined as the IC50.

Compound | IC50 (CETP [1]) | IC50 (CETP [2])
OC(CN(Cc1ccc(Cl)s1)c1cccc(OC(F)(F)F)c1)C(F)(F)F (centres unmarked) [Example 321, 3-[[(5-chloro-2-thienyl)methyl][(3-trifluoromethoxy)phenyl]amino]-1,1,1-trifluoro-2-propanol] | > 100 µM | –
OC(CN(Cc1ccc(OC(F)(F)F)cc1)c1ccccc1)C(F)(F)F (centres unmarked) [compound 59] | 100 µM | –
OC(CN(Cc1ccc(OC(F)(F)F)cc1)c1cccc(OC(F)(F)F)c1)C(F)(F)F (centres unmarked) [compound 60] | 120 µM | 5.5 µM
OC(CN(Cc1cccc(OC(F)(F)F)c1)c1ccccc1)C(F)(F)F (centres unmarked) [compound 73] | 100 µM | –
CC(C)c1ccc(Oc2cccc(N(Cc3cccc(OC(F)(F)C(F)F)c3)CC(O)C(F)(F)F)c2)cc1 (centres unmarked) [compound 250] | 31 µM | 0.44 µM
OC(CN(Cc1cccc(OC(F)(F)C(F)F)c1)c1cccc(Oc2ccc(Cl)c(Cl)c2)c1)C(F)(F)F (centres unmarked) [compound 256] | 7.8 µM | –
CCCc1ccc(Oc2cccc(N(Cc3cccc(OC(F)(F)C(F)F)c3)CC(O)C(F)(F)F)c2)cc1 (centres unmarked) [compound 266] | 21 µM | –
Cc1ccc(Oc2cccc(N(Cc3cccc(OC(F)(F)C(F)F)c3)CC(O)C(F)(F)F)c2)cn1 (centres unmarked) [compound 282] | 12 µM | 0.84 µM
OC(CN(Cc1cccc(OC(F)(F)C(F)F)c1)c1cccc(N2CCC(Cc3ccccc3)CC2)c1)C(F)(F)F (centres unmarked) [compound 316] | > 100 µM | 3.1 µM
OC(CN(Cc1cccc(OC(F)(F)C(F)F)c1)c1cccc(N2CCC3(CC2)OCCO3)c1)C(F)(F)F (centres unmarked) [compound 317] | > 100 µM | 3.4 µM
OC(CN(Cc1ccc(Cl)s1)c1cccc(OC(F)(F)F)c1)C(F)(F)F (centres unmarked) [compound 346] | > 100 µM | 7.7 µM
OC(CN(Cc1cccc(OC(F)(F)C(F)F)c1)c1cccc(OCc2ccccc2)c1)C(F)(F)F (centres unmarked) [compound 373] | 12 µM | 0.22 µM
Cc1ccc(Oc2cccc(N(Cc3cccc(SC(F)(F)F)c3)CC(O)C(F)(F)F)c2)cc1 (centres unmarked) [compound 637] | 8 µM | 0.47 µM
OC(CN(Cc1cccc(OC(F)(F)C(F)F)c1)c1cccc(Oc2ccc(F)c(F)c2)c1)C(F)(F)F (centres unmarked) [compound 638] | 11 µM | 0.26 µM
OC(CN(Cc1cccc(OC(F)(F)C(F)F)c1)c1cccc(Oc2ccc(F)cc2F)c1)C(F)(F)F (centres unmarked) [compound 639] | 5 µM | 0.21 µM
OC(CN(Cc1cccc(SC(F)(F)F)c1)c1cc(Oc2ccc(F)cc2)cc(C(F)(F)F)c1)C(F)(F)F (centres unmarked) [compound 642] | 50 µM | 1.1 µM
CC(C)Oc1cccc(CN(CC(O)C(F)(F)F)c2cccc(Oc3ccc(F)cc3)c2)c1 (centres unmarked) [compound 647] | 13 µM | 0.52 µM

Compound | IC50 (CETP [1]) | IC50 (CETP [2])
CCCCOc1cccc(CN(CC(O)C(F)(F)F)c2cccc(Oc3ccc(F)cc3)c2)c1 (centres unmarked) [compound 649] | > 100 µM | 4.9 µM
CCC(C)Oc1cccc(CN(CC(O)C(F)(F)F)c2cccc(Oc3ccc(F)cc3)c2)c1 (centres unmarked) [compound 650] | 30 µM | 0.41 µM
OC(CN(Cc1cccc(OCC2CC2)c1)c1cccc(Oc2ccc(F)cc2)c1)C(F)(F)F (centres unmarked) [compound 651] | – | 0.99 µM
CC(C)COc1cccc(CN(CC(O)C(F)(F)F)c2cccc(Oc3ccc(F)cc3)c2)c1 (centres unmarked) [compound 652] | – | 1.5 µM
OC(CN(Cc1cccc(OC2CCCC2)c1)c1cccc(Oc2ccc(F)cc2)c1)C(F)(F)F (centres unmarked) [compound 653] | 38 µM | 0.91 µM
N#Cc1ccc(Oc2cccc(N(Cc3cccc(OC(F)(F)C(F)F)c3)CC(O)C(F)(F)F)c2)cc1 (centres unmarked) [compound 657] | 24 µM | 1 µM
OC(CN(Cc1cccc(OC(F)(F)C(F)F)c1)c1cccc(Oc2ccc(OC(F)(F)F)cc2)c1)C(F)(F)F (centres unmarked) [compound 658] | 30 µM | 0.44 µM
OC(CN(Cc1ccccc1C(F)(F)F)c1cccc(F)c1)C(F)(F)F (centres unmarked) [compound 670] | – | > 100 µM
Cc1ccccc1CN(CC(O)C(F)(F)F)c1cccc(F)c1 (centres unmarked) [compound 671] | – | > 100 µM
Cc1ccc(CN(CC(O)C(F)(F)F)c2ccc(C(F)(F)F)cc2)cc1 (centres unmarked) [compound 672] | – | 100 µM
OC(CN(Cc1cccc(Oc2cccc(C(F)(F)F)c2)c1)c1cccc(F)c1)C(F)(F)F (centres unmarked) [compound 674] | – | > 100 µM
OC(CN(Cc1ccccc1F)Cc1ccccc1C(F)(F)F)C(F)(F)F (centres unmarked) [compound 696] | – | 100 µM
OC(CF)CN(Cc1cccc(OC(F)(F)F)c1)Cc1cccc(OC(F)(F)F)c1 (centres unmarked) [compound 697] | – | 55 µM
COc1cc2c(cc1N(Cc1cccc(OC(F)(F)F)c1)CC(O)C(F)(F)F)oc1ccccc12 (centres unmarked) [compound 698] | – | 100 µM
OC(COC(F)(F)C(F)F)CN(Cc1cccc(OC(F)(F)C(F)F)c1)c1cccc(Oc2ccc(F)cc2)c1 (centres unmarked) [compound 701] | – | 4.5 µM
OC(COC(F)(F)C(F)F)CN(Cc1cccc(OC(F)(F)C(F)F)c1)c1cccc(Oc2ccc(C(F)(F)F)cc2)c1 (centres unmarked) [compound 702] | – | 35 µM
